The values below come from patent US20220281802A1, “COMPOUNDS, PHARMACEUTICAL COMPOSITIONS, AND METHODS OF THEIR USE IN THE INHIBITION OF INTERACTION BETWEEN IL18 AND IL18R” (Beth Israel Deaconess Medical Center, Inc., priority 2019, published 2022).

Where two headings read alike, the source gives them in different places.

Data set [1] deals with IFN-γ gene expression in NK92 cells. The settings on record: Kalina et al., J. Immunol. 2000; positive control; cited from earlier work.
In data set [2] the test system is human saphenous vein segments. Nature of the data set: Cytokine expression in human saphenous vein ex vivo (LPS challenge, multiplex ELISA). The class given is cell-based. The settings on record: LPS 100 ng/ml + compound 10 μM, 18 hours, culture supernatant. The source says:
Example 2. Cytokine Expression in Human Saphenous Vein Ex Vivo
In this example, a cytokine storm/inflammation common to many vascular conditions has been modeled by challenging human saphenous vein segments with lipopolysaccharide (LPS). Discarded human saphenous vein samples were collected from patients undergoing peripheral bypass grafting.
Samples were subjected to Human (h) TheRPA (Therapeutic Responses Predictor Assay) which is based on ex-vivo treatment of biopsies (explant cultures). The tissues were transferred to the lab within 30 min of their harvesting and cultured in DMEM+10% FBS+1% antibiotic/antimycotic (DMEM plus glucose, glutamine, sodium pyruvate: Gibco 11995-065; Heat Inactivated FBS: Gibco 16140-089; Antibiotic-Antimycotic: Gibco 15240-096) in the presence of vehicle, LPS (100 ng/ml) or LPS (100 ng/ml)+compound 1/compound 10/compound 15 (10 μM). After 18 hours, culture supernatants were collected and kept at −80° C. Cytokine levels in cell culture supernatant were measured by multiplex ELISA (Milliplex map human cytokine/chemokine magnetic bead kit from Millipore).
In general terms: An ELISA detects its analyte on a solid surface through an enzyme-linked reagent.

The subject of data set [3] is Primary human saphenous vein smooth muscle (SMC). The data set is described as follows: Alamar Blue assay for cell toxicity and proliferation, smooth muscle cells. The settings on record: 10 nM-10 μM, up to 72 hours; FIGS. 3D-3F, 4A, 4B. Background: The colour change of resazurin is a common sign of viable cells or microbes.
Experimental: Primary human saphenous vein smooth muscle (SMC) and endothelial cells (EC) were left untreated or treated with inhibitor compounds (10 nM-10 μM) for a period of 3-4 days. Cell proliferation was measured using our previously published Alamar Blue Assay (Monahan et al., FASEB J., 23:557-564, 2009; Yoshida et al., J. Am. Coll. Surg. 213:668-67, 2011).
The target of data set [4] is T1, IL18 (Homo sapiens, UniProt Q14116).
T1 sequence (Q14116 37-193): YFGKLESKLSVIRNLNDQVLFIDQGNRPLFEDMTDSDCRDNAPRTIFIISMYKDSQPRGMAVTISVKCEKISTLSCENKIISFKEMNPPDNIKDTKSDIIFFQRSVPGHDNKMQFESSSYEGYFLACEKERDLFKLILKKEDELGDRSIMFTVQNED
Nature of the data set: Microscale Thermophoresis (MST) binding. More on the design: Recombinant IL18 was fluorescently labelled using the lysine reactive Pico RED NT647 dye. On the procedure: Microscale Thermophoresis
Recombinant IL18 was fluorescently labelled using the lysine reactive Pico RED NT647 dye from NanoTemper Technologies and stored in a PBS buffer containing 0.05% TWEEN (Buffer A). Stock concentration of labelled IL18 was […]. Working concentrations of IL18 were diluted in Buffer A to 10, 40, or 50 nM. Except for the positive control, IL18BP, stock concentration for all compounds, or ligands, was 10-25 mM in 100% DMSO. Ligands were diluted in Buffer A to working concentrations of 50-500 μM. Containing 0.8-2% DMSO. Stock concentration of IL8BP, was 50 μM, stored in 20 mM Tris-HI buffer (pH 8.0) containing 0.4 M Urea and 10% glycerol (Buffer B). Prior to MST experiments being performed 16 preparations of two-fold serial dilutions of ligand in uniform buffer, starting with the working Uigand concentration, were incubated with equal volumes of a fixed concentration of labelled IL8. After 30 minutes incubation at room temperature, 16 Monolith NT. 15 standard capillaries were loaded with 10 μl volumes of each of the ligand/IL18 preparations. Tests described in Results were run at 3700.
Experiments were performed on a Monolith NT.115Pico machine (NanoTemper Technologies GmbH, Germany). Data quality and analysis and graphic rendering were performed using MO.Affinity Analysis v2.3 software from NanoTemper technologies. Evaluation strategy for all analyses was standardized to measure relative change of fluorescence (FNorm %) over a 2.5 second of laser induced temperature shift per capillary. Statistical analysis was performed using NanoTemper's MOControl software. The results of this assay for compounds 1, 10, and 15 are shown in FIGS. 7, 8, 9A, 9B, and […] and Table 3 describes the MST assay conditions.

The subject of data set [5] is IL18. Nature of the data set: HEK-Blue IL18 cell reporter assay (SEAP). Type of data set: cell-based. The settings on record: Phase I; HEK-Blue IL18 cells, co-treated with recombinant human IL18 15 pM-100 pM, 18 hours; FIGS. 1A-1D. On the procedure: HEK-Blue IL18 Cell Reporter Assay
HEK-Blue IL18 Cells (Invivogen California, USA), are a derivative of HEK293 cells that have been stably transfected with IL18Rα/IL18RAP genes and a SEAP reporter gene that is expressed and secreted in specific response to IL18. Cells were grown in […] tissue culture flasks with DMEM culture medium containing 4.5 g/L glucose, 10% (v/v) heat-inactivated fetal bovine serum, 50 μ/mL penicillin, 50 μg/mL streptomycin, 100 μg/mL Normocin and 2 mM L-glutamine at 37° C. in 5% CO2.
Stock concentration of IL18 was 750 μM stored in Tris-HCl buffer at −80° C. For treatment use, compounds were diluted in sterile PBS to 100 times the intended treatment concentration and administered into wells containing 198 μl media at volumes of 2 μl. Total DMSO contents for all vehicles was less than 0.02% prior to treatment, and less than 0.0002% within wells following treatment.
HEK-Blue IL18 cells were transferred from flasks and seeded at 40-50% confluency on 96-well culture plates 6 hours prior to treatment.
Phase I: Cells were treated with compounds at concentrations of […], 7.5 pM, and 1.5 pM, with three replicate wells for each concentration, and six replicate wells with no compound treatment (NT). All wells were then immediately co-treated with recombinant human IL18 at one concentration between 15 pM-100 pM. Following treatments, cells were incubated at 37° C. in 5% CO2 for 18 hours. Cell confluency typically reached 70-80% (˜80,000-100,000 cells per well) by this point, 24 hours after seeding.
To detect SEAP activity, 20 μL supernatant from each well was transferred and mixed with 180 μl alkaline phosphatase detection medium (QUANTi-Blue, InvivoGen, California, USA), in a separate 96-well plate and incubated for 3 hours at room temperature. Supernatant SEAP activity was measured by reading the optical density (OD) at 640 nm using a spectrophotometer. OD values were standardized to NT mean=1.
Statistical analysis was performed GraphPad Prism (California, USA) software. One-Way analysis of variance (ANOVA) with Dunnett's post-hoc analysis was used to determine significant variation between treatment and control (NT) groups treated only with IL18.
A general note: Reporter assays use an easily measured gene product as a stand-in for the process of interest.

Data set [6] concerns IFN-γ gene expression in NK92 cells. Nature of the data set: IFN-γ gene expression induction in NK-92 cells (qRT-PCR). The class given is cell-based. The settings on record: 24 hours. The method, then:
IFN-γ Gene Expression Induction in NK-92 Cells
IFN-γ gene and protein expression induction is a standard to measure IL-18 activity in NK92 cells (Kalina et al., J. Immunol. 165:1307-1313, 2000).
NK92 cells were treated with 1 μM concentration of compounds 1, 10, or […]. […] 24 hours after treatment, total RNA was harvested and qRT-PCR was conducted using a previously published protocols (Raof et al., BMC Genomics, 17-20, 2016; Monahan et al., FASEB J., 23:557-564, 2009) to measure the gene expression of IFN-γ.

Data set [7] deals with Primary human saphenous vein endothelial cells (EC). Nature of the data set: Alamar Blue assay for cell toxicity and proliferation, endothelial cells. The class given is cell-based. The settings on record: 10 nM-10 μM, up to 76 hours; FIGS. 3A-3C. The source says:
Alamar Blue Assay for Cell Toxicity and Proliferation

The target of data set [8] is T1, IL18. The settings on record: background statement; read-out: affinity for hIL18; cited from earlier work.
The mark [9] stands for this setting: labelled IL18, 37.0° C., n 2, Table 3.
Where [10] appears, read: FIG. 5, compound 1 μM, no treatment 1.06±0.38.
[11] abbreviates: FIG. 6, compound 1 μM, no treatment 1.33±0.85.

Consider `C[S+]([O-])c1ccc(-c2nc(-c3ccc(F)cc3)c(-c3ccncc3)[nH]2)cc1` (stereo not drawn) [Compound 1V], for which the “IFN-γ expression in NK92 cells (literature statement)” value in data set [1] is listed as “known inhibitor of IFN-γ expression in NK92 cells”.

As for `Cc1ccc(Cc2ccc(C)c(N)c2)cc1N` [Compound 5], in data set [2], the IL-6 expression entry is “significantly inhibited”, the IL-8 expression result is on record as “significantly inhibited” and the TNF expression result is reported as “significantly inhibited”.

With `O=C1c2nn[nH]c2C(=O)c2nn[nH]c21` [Compound 10], the “toxicity in SMC (Alamar Blue)” value in data set [3] was “no toxicity”. Further, the Kd in data set [4] (FIGS. 9A-9C) was determined as 2.27 nM. In addition, the Kd in data set [4] (setting [9]) was determined as 2.27 nM. In addition, in data set [2], the IL-6 expression entry is recorded as “significantly inhibited”, the IL-8 expression result is listed as “significantly inhibited” and the TNF expression result was “significantly inhibited”. Moreover, the “IL-18 activity (SEAP reporter)” value in data set [5] is listed as “significantly reduce IL-18 activity”.

Take `CC(C)c1ccc(NC(=N)NC(=N)N)cc1` [Compound 15]: the “toxicity in SMC (Alamar Blue)” value in data set [3] is on record as “no toxicity”. The Kd in data set [4] (FIG. 9C) is 5600 nM; in data set [4] (setting [9]), 5640 nM. Further, in data set [6] (setting [10]), the IFN-γ expression is on record as 0.99±0.38. Also, in data set [7], the “toxicity in EC (Alamar Blue)” value was “no toxicity”. Besides, the “IL-18 activity (SEAP reporter)” value in data set [5] is recorded as “significantly reduce IL-18 activity”.

Regarding “IL-18: Interleukin-18, pro-inflammatory cytokine used as stimulus of IFN-γ expression”, the IFN-γ expression is on record as 5.52±3.43 in data set [6] (setting [10]) and 7.9±7.23 in data set [6] (setting [11]).

Take `Nc1cccc(Cc2cccc(N)c2)c1` [Compound 1]: the Kd in data set [4] (FIGS. 9A-9C) was 60.6 nM. In addition, the Kd in data set [4] (setting [9]) stood at 60.6 nM. In data set [2], the IL-6 expression entry is on record as “significantly inhibited”, the IL-8 expression result is listed as “significantly inhibited” and the TNF expression result is given as “significantly inhibited”. Also, the IFN-γ expression in data set [6] (setting [11]) was determined as 0.04±0.02. In addition, the “IL-18 activity (SEAP reporter)” value in data set [5] is recorded as “significantly reduce IL-18 activity”.

B1: IL18BP: Interleukin-18 Binding Protein, naturally occurring IL18 antagonist, soluble protein with a single Ig domain; positive control (protein, UniProt O95998 31-194, looked up)
Interleukin-18-binding protein: TPVSQTTTAATASVRSTKDPCPSQPPVFPAAKQCPALEVTWPEVEVPLNGTLSLSCVACSRFPNFSILYWLGNGSFIEHLPGRLWEGSTSRERGSTGTQLCKALVLEQLTPALHSTNFSCVLVDPEQVVQRHVVLAQLWAGLRATLPPTQEALPSSHSSPQQQG
In the case of B1, the Kd is 1.85 nM in data set [4] (FIGS. 9A-9C), 1.85 nM in data set [4] (setting [9]) and 0.4 nM in data set [8]. Further, the “IL-18 activity (SEAP reporter)” value in data set [5] is reported as “significantly reduce IL-18 activity”.
